Where no end group is shown, it is not given here. [ ]: non-standard residue; d: D form. The star is where a group is joined. Dihydrocaffeoyl = O=C(CCc1ccc(O)c(O)c1)*; Dopa = N[C@@H](Cc1ccc(O)c(O)c1)C(=O)O; Hyp = O=C(O)[C@@H]1C[C@@H](O)CN1

The assay relates to xylene-induced ear swelling. Put plainly: Mouse ear swelling model (xylene-induced). The format is in vivo, BALB/c mice. The conditions noted are these: for Swelling rate: (right ear weight - left ear weight)/left ear weight x 100, about 0.1 g gel (peptide 0.5 mg/g) or Dex cream on right ear 1 hour before 20 μL xylene, ears taken 40 minutes after xylene, 5 mice per group; for anti-inflammatory effects compared with the other peptides tested: xylene mouse ear swelling, topical gels 0.5 mg/g. The protocol:
35 Health male BALB/c mice with 6-8 weeks old and average body weight of 18-25 g were supplied from Changzhou Cvens Experimental Animal Co., Ltd. and housed and cared for about 1 week prior to the experiment. The housing temperature was around 25 to 27 ° C. with 74% humidity, alternating 12-hour periods of light and darkness, and free access to food and water. The mice were randomly divided into 7 groups as described in Table 5 below, with 5 mice in each group. [table] Dexamethasone acetate cream (Dex cream; 5 mg/10 g (which means that there was 5 mg Dex contained in 10 g of the cream), Fuyuan Pharmaceutical Co. Ltd., Anhui, China) was used as positive control. The left ear of each mouse was used as an autologous control. The right ear of each mouse was treated with the above compounds in the stated concentrations. About 0.1 g of the various gels, and Dex cream were applied to the right ear of mice in each group, both inside and outside. The blank gel base was applied on the ears in the model groups. After 1 hour, 20 μL of xylene (Shanghai Aladdin Bio-Chem Technology Co., Ltd.) was applied to the same ear of each mouse. The mice were sacrificed by cervical dislocation 40 minutes after xylene application. The left and right ears were cut off. An EMS skin biopsy punch with a diameter of 8 mm was used to take a piece of the ear from the same site on both ears. The weights were recorded, and the swelling rate was calculated as a percentage according to the following formula: (right ear weight−left ear weight)/left ear weight×100

The substance “15 (Dihydrocaffeoyl-AKPS[Dopa][Hyp]T[Dopa][Hyp]K) [compound 15]” had a Swelling rate of 63%.
In the case of “18 (Dihydrocaffeoyl-AKPS[Dopa][Hyp][Hyp]T[Dopa]K) [compound 18]”, the Swelling rate came to 57%.
Regarding “22 (Dihydrocaffeoyl-KPS[Dopa][Hyp]TA[Hyp]K) [compound 22]”, the Swelling rate turned out to be 40% and the “anti-inflammatory effects compared with the other peptides tested” value was “stronger than the other peptide compounds tested”.
For the substance “58 (KAKPS[Dopa][Hyp][Hyp]T-dopamine) [compound 58]”, the Swelling rate stood at 43% and the “anti-inflammatory effects compared with the other peptides tested” value is recorded as “stronger than the other peptide compounds tested”.

The record behind these values is US20240218016A1, “PEPTIDES AND THEIR USE IN THE TREATMENT OF INFLAMMATION” (Shenzhen Institutes of Advanced Technology, priority 2019, published 2024).
